Data from ChEMBL document CHEMBL4825735, “Estimation of the lipophilicity of purine-2,6-dione-based TRPA1 antagonists and PDE4/7 inhibitors with analgesic activity” (Bioorg Med Chem Lett, 2021).

Test: Relative lipophilicity of the compound in methanol assessed as retardation factor by reversed-phase TLC analysis
Type: physicochemical
Conditions: not given

| SMILES | Rm |
| --- | --- |
| COc1nc2c(c(=O)n(C)c(=O)n2C)n1CC(=O)Nc1ccc(C(C)(C)C)cc1 | 3.92 |
| COc1nc2c(c(=O)n(C)c(=O)n2C)n1CCCC(=O)Nc1ccc(C(C)(C)C)cc1 | 3.82 |
| CCCOc1nc2c(c(=O)n(C)c(=O)n2C)n1CCCC(=O)Nc1ccc(C(C)CC)cc1 (configuration not stated) | 4.86 |
| CCCOc1nc2c(c(=O)n(C)c(=O)n2C)n1CCCC(=O)Nc1ccc(C(C)(C)C)cc1 | 4.81 |
| COc1nc2c(c(=O)n(C)c(=O)n2C)n1CC(=O)Nc1ccc(C(C)C)cc1 | 3.28 |
| CCOc1nc2c(c(=O)n(C)c(=O)n2C)n1CCCC(=O)Nc1ccc(C(C)C)cc1 | 4.4 |
| CCOc1nc2c(c(=O)n(C)c(=O)n2C)n1CC(=O)Nc1ccc(C(C)(C)C)cc1 | 3.99 |
| CCOc1nc2c(c(=O)n(C)c(=O)n2C)n1CCCC(=O)Nc1ccc(C(C)(C)C)cc1 | 3.84 |
| CCCOc1nc2c(c(=O)n(C)c(=O)n2C)n1CCCC(=O)Nc1ccc(C(C)C)cc1 | 4.4 |
| CCCCOc1nc2c(c(=O)n(C)c(=O)n2C)n1CCCC(=O)Nc1ccc(C(C)CC)cc1 (configuration not stated) | 4.7 |
| CCOc1nc2c(c(=O)n(C)c(=O)n2C)n1CC(=O)Nc1ccc(C(C)C)cc1 | 3.86 |
| COc1nc2c(c(=O)n(C)c(=O)n2C)n1CCCC(=O)Nc1ccc(C(C)C)cc1 | 3.8 |
| CCCCOc1nc2c(c(=O)n(C)c(=O)n2C)n1CCCC(=O)Nc1cc(C(C)CC)ccc1O (configuration not stated) | 4.87 |
| CCCOc1nc2c(c(=O)n(C)c(=O)n2C)n1CCCC(=O)Nc1cc(C(C)CC)ccc1O (configuration not stated) | 4.52 |
| CC(=O)Nc1ccc(O)cc1 [ACETAMINOPHEN] | 0.31 |
| CCC1(CC)C(=O)NC(=O)NC1=O [BARBITAL] | 0.8 |
| CCOC(=O)c1ccc(N)cc1 [BENZOCAINE] | 1.92 |
| O=C(CCCN1CCC(O)(c2ccc(Cl)cc2)CC1)c1ccc(F)cc1 [HALOPERIDOL] | 3.61 |
| CCN(CC)CC(=O)Nc1c(C)cccc1C [LIDOCAINE] | 1.31 |
| COc1ccc(Cc2nccc3cc(OC)c(OC)cc23)cc1OC [PAPAVERINE] | 2.79 |
| CCC1(c2ccccc2)C(=O)NC(=O)NC1=O [PHENOBARBITAL] | 1.9 |
| O=C1NC(=O)C(c2ccccc2)(c2ccccc2)N1 [PHENYTOIN] | 2.43 |
| C[C@]12C=CC(=O)C=C1CC[C@@H]1[C@@H]2[C@@H](O)C[C@@]2(C)[C@H]1CC[C@]2(O)C(=O)CO [PREDNISOLONE] | 2.49 |
| Cn1cnc2c1c(=O)[nH]c(=O)n2C [THEOBROMINE] | 0.26 |
| Cn1c(=O)c2[nH]cnc2n(C)c1=O.O [THEOPHYLLINE] | 0.61 |
| O=c1n(CCCN2CCN(c3cccc(Cl)c3)CC2)nc2ccccn12 [TRAZODONE] | 2.65 |

Test: Lipophilicity, logP of compound by shake flask method
Type: physicochemical
Conditions: octanol/water

| SMILES | logP |
| --- | --- |
| COc1ccc(Cc2nccc3cc(OC)c(OC)cc23)cc1OC [PAPAVERINE] | 3 |
